One assay has as its target T1, human DGKζ (Homo sapiens, UniProt Q13574).
T1 construct: TVMV protease cleavage site (C); Hexa-His (C); made in house; host or cells: Sf9 insect cells (baculovirus)
Description: In vitro DGK inhibition assay, DGKζ liposome (LIPGLO) assay. Particulars: read-out: Enzyme Inhibition DGKzeta IC50. The class given is biochemical. The procedure, abridged: (§1)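 Baculovirus/Sf9-expressed His-tagged human DGKα or DGKζ (5 nM) on extruded liposomes (2 mM PS, 0.25 mM DAG, 2.75 mM PC) in MOPS pH 7.5 with MgCl2, CaCl2 and 150 μM ATP, 1 h.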

The target in another assay is DGKzeta (Homo sapiens, UniProt Q13574). Description: Translocation DGKzeta. The class given is cell-based.
Sequence of DGKzeta (Q13574 whole entry): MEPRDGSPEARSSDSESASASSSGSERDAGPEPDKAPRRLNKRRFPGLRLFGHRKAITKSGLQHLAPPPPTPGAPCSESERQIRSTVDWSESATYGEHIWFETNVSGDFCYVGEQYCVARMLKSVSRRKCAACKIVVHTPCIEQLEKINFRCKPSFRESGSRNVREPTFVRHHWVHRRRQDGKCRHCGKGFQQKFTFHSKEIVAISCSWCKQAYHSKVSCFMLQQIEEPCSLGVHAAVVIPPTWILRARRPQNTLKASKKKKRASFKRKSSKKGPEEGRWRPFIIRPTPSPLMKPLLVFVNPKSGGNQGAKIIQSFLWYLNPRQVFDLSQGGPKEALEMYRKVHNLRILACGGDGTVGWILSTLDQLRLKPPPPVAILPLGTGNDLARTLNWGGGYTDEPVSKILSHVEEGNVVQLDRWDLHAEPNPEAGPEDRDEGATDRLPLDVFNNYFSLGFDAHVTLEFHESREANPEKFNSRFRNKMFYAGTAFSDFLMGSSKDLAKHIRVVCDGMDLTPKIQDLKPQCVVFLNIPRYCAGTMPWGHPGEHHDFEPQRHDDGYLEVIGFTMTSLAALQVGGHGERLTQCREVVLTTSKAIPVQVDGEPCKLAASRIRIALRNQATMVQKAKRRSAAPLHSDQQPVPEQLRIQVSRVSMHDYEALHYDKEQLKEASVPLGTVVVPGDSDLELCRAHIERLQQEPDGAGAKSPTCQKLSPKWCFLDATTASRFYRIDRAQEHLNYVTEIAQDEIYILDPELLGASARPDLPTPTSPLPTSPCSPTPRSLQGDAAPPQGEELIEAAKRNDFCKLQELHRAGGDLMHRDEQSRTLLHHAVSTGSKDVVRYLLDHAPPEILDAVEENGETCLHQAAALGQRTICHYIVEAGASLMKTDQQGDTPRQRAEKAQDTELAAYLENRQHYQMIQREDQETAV
For another assay, the target named is T2, human DGKα (Homo sapiens, UniProt P23743).
T2 construct: TVMV protease cleavage site (C); Hexa-His (C); made in house; host or cells: Sf9 insect cells (baculovirus)
T2 sequence (P23743 with tags, fused parts or gaps): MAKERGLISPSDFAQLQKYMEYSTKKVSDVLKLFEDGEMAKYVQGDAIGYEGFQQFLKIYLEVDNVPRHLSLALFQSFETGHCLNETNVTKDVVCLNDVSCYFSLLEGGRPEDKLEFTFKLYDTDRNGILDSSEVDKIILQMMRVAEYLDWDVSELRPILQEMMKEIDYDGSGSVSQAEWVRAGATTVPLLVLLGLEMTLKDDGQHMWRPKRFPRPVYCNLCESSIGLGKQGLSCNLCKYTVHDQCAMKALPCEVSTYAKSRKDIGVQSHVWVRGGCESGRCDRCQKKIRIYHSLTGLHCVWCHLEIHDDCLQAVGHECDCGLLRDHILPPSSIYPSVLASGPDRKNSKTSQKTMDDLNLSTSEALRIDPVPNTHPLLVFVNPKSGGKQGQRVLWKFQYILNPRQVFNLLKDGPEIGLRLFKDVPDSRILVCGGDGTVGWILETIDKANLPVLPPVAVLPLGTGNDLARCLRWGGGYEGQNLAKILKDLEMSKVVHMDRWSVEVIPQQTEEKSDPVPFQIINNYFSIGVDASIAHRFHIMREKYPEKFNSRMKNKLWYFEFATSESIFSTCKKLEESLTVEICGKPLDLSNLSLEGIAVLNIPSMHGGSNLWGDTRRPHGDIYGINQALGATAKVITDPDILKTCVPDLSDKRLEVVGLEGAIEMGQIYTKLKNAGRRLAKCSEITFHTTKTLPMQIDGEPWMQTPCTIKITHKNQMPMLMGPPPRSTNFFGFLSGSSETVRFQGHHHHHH
Kind of assay: In vitro DGK inhibition assay, DGKα liposome (LIPGLO) assay. The class given is biochemical. Particulars: read-out: Enzyme Inhibition DGKalpha IC50. An outline of the steps:
as §1

The structures appear in SMILES notation.

The IC50 is the point on the concentration scale where inhibition reaches its midpoint. A word on the EC50: it is the concentration giving half of the maximal effect. Low readings indicate an effect from little substance, high ones a need for much substance.

T1 sequence (Q13574 with tags, fused parts or gaps isoform Q13574-4): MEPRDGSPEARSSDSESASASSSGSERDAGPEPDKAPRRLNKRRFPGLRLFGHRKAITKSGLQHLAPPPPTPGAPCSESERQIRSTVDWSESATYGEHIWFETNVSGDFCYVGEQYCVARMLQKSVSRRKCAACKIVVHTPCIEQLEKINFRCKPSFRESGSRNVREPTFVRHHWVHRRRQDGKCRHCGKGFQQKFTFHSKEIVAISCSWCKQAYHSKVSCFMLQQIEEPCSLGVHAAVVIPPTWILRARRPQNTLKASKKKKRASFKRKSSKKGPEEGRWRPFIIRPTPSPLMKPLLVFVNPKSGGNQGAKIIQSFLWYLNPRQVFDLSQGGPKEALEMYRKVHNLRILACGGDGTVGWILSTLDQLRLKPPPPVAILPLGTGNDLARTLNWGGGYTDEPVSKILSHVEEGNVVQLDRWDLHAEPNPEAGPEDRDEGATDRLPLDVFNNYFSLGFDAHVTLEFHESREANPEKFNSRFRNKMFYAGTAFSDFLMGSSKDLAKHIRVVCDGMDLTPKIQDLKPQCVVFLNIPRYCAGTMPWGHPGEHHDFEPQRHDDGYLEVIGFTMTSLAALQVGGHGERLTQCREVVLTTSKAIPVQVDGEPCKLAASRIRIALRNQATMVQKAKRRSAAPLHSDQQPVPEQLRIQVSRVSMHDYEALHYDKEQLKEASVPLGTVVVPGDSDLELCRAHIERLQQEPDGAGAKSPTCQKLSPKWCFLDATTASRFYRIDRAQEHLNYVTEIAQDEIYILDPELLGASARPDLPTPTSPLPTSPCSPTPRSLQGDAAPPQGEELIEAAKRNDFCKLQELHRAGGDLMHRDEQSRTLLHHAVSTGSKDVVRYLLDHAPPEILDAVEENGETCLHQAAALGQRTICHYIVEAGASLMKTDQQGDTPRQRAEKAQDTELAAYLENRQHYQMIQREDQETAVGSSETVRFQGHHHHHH

In the case of `Cn1c(=O)cc(N(CC2CC2)c2ccc(OC(F)F)c(C#N)c2)c2nc(C#N)ccc21` [Example 63, 8-((3-cyano-4-(difluoromethoxy)phenyl)(cyclopropylmethyl)amino)-5-methyl-6-oxo-5,6-dihydro-1,5-naphthyridine-2-carbonitrile], the figures for the IC50 on human DGKζ and at human DGKα were 12 µM and 6.3 µM, respectively. In addition, a half-maximal effect at DGKzeta (EC50) was put at 1.3 µM.
For `Cn1c(=O)cc(N(CC2CC2)c2ccc(F)nc2)c2nc(C#N)ccc21` [Example 64, 8-((cyclopropylmethyl)(6-fluoropyridin-3-yl)amino)-5-methyl-6-oxo-5,6-dihydro-1,5-naphthyridine-2-carbonitrile], the IC50 was 3 µM on human DGKζ and 0.15 µM at human DGKα. Besides, a half-maximal response on DGKzeta (EC50) required 1.6 µM.
On to `Cc1cccc(-c2cccc(N(CC3CC3)c3cc(=O)n(C)c4ccc(C#N)nc34)c2)c1` [Example 92, 8-((cyclopropylmethyl)(3′-methyl-[1,1′-biphenyl]-3-yl)amino)-5-methyl-6-oxo-5,6-dihydro-1,5-naphthyridine-2-carbonitrile], for which the IC50 amounted to 7.2 µM at human DGKζ and 0.77 µM at human DGKα.
For `Cc1ccccc1-c1cccc(N(CC2CC2)c2cc(=O)n(C)c3ccc(C#N)nc23)c1` [Example 93, 8-((cyclopropylmethyl)(2′-methyl-[1,1′-biphenyl]-3-yl)amino)-5-methyl-6-oxo-5,6-dihydro-1,5-naphthyridine-2-carbonitrile], the figures for the IC50 on human DGKζ and at human DGKα were 9.2 µM and 4.2 µM, respectively.
Take `Cn1c(=O)cc(N(CC2CC2)c2cccc(-c3cccc(Cl)c3)c2)c2nc(C#N)ccc21` [Example 94, 8-((3′-chloro-[1,1′-biphenyl]-3-yl) (cyclopropylmethyl)amino)-5-methyl-6-oxo-5,6-dihydro-1,5-naphthyridine-2-carbonitrile]: the figures for the IC50 at human DGKζ and at human DGKα were 9.1 µM and 2.5 µM, respectively.
With `COc1cccc(-c2cccc(N(CC3CC3)c3cc(=O)n(C)c4ccc(C#N)nc34)c2)c1` [Example 95, 8-((cyclopropylmethyl)(3′-methoxy-[1,1′-biphenyl]-3-yl)amino)-5-methyl-6-oxo-5,6-dihydro-1,5-naphthyridine-2-carbonitrile], the IC50 is 6.2 µM at human DGKζ and 2 µM on human DGKα.
The corresponding values for `COc1ccccc1-c1cccc(N(CC2CC2)c2cc(=O)n(C)c3ccc(C#N)nc23)c1` [Example 96, 8-((cyclopropylmethyl)(2′-methoxy-[1,1′-biphenyl]-3-yl)amino)-5-methy-6-oxo-5,6-dihydro-1,5-naphthyridine-2-carbonitrile] are 5.4 µM and 2.9 µM.
The corresponding values for `Cn1c(=O)cc(N(CC2CC2)c2cccc(-c3ccccc3Cl)c2)c2nc(C#N)ccc21` [Example 97, 8-((2′-chloro-[1,1′-biphenyl]-3-yl)(cyclopropylmethyl)amino)-5-methyl-6-oxo-5,6-dihydro-1,5-naphthyridine-2-carbonitrile] are 8 µM and 1.9 µM.
For the molecule `Cn1c(=O)cc(N(CC2CC2)c2cccc(-c3cccc(O)c3)c2)c2nc(C#N)ccc21` [Example 99, 8-((cyclopropylmethyl)(3′-hydroxy-[1,1′-biphenyl]-3-yl)amino)-5-methyl-6-oxo-5,6-dihydro-1,5-naphthyridine-2-carbonitrile], the IC50 at human DGKζ came out at 31 µM; on human DGKα it was 1.8 µM.
Turning to `CN(C)C(=O)c1ccc(-c2cccc(N(CC3CC3)c3cc(=O)n(C)c4ccc(C#N)nc34)c2)cc1` [Example 101, 3′-((6-cyano-1-methyl-2-oxo-1,2-dihydro-1,5-naphthyridin-4-yl)(cyclopropylmethyl)amino)-N,N-dimethyl-[1,1′-biphenyl]-4-carboxamide], the IC50 at human DGKζ is 13 µM; on human DGKα, 0.93 µM.
In the case of `Cn1c(=O)cc(N(CC2CC2)c2cccc(-c3ccc(CNS(C)(=O)=O)cc3)c2)c2nc(C#N)ccc21` [Example 102, N-((3′-((6-cyano-1-methyl-2-oxo-1,2-dihydro-1,5-naphthyridin-4-yl)(cyclopropylmethyl)amino)-[1,1′-biphenyl]-4-yl)methyl)methanesulfonamide], the IC50 was determined as 3.5 µM on human DGKζ and 0.18 µM on human DGKα.
As to `Cn1c(=O)cc(N(CC2CC2)c2cccc(-c3ccc(C(N)=O)cc3)c2)c2nc(C#N)ccc21` [Example 103, 3′-((6-cyano-1-methyl-2-oxo-1,2-dihydro-1,5-naphthyridin-4-yl)(cyclopropylmethyl)amino)-[1,1′-biphenyl]-4-carboxamide], the IC50 at human DGKζ stood at 2 µM; at human DGKα it was 0.12 µM.
For `Cn1c(=O)cc(N(CC2CC2)c2cccc(-c3cccc(C(N)=O)c3)c2)c2nc(C#N)ccc21` [Example 104, 3′-((6-cyano-1-methyl-2-oxo-1,2-dihydro-1,5-naphthyridin-4-yl) (cyclopropylmethyl)amino)-[1,1′-biphenyl]-3-carboxamide], the IC50 at human DGKζ turned out to be 5.2 µM; on human DGKα, 41 µM.
The matching figures for `Cn1c(=O)cc(N(CC2CC2)c2cccc(-c3cccc(CNS(C)(=O)=O)c3)c2)c2nc(C#N)ccc21` [Example 105, N-((3′-((6-cyano-1-methyl-2-oxo-1,2-dihydro-1,5-naphthyridin-4-yl) (cyclopropylmethyl)amino)-[1,1′-biphenyl]-3-yl)methyl)methanesulfonamide]: 4.4 µM and 33 µM.
Turning to `Cn1c(=O)cc(N(CC2CC2)c2cccc(-c3cccnc3)c2)c2nc(C#N)ccc21` [Example 106, 8-((cyclopropylmethyl)(3-(pyridin-3-yl)phenyl)amino)-5-methyl-6-oxo-5,6-dihydro-1,5-naphthyridine-2-carbonitrile], the results for the IC50 at human DGKζ and on human DGKα were 2.2 µM and 0.66 µM, respectively.
The matching figures for `CN(C)c1ccc(-c2cccc(N(CC3CC3)c3cc(=O)n(C)c4ccc(C#N)nc34)c2)cc1` [Example 107, 8-((cyclopropylmethyl)(4′-(dimethylamino)-[1,1′-biphenyl]-3-yl)amino)-5-methyl-6-oxo-5,6-dihydro-1,5-naphthyridine-2-carbonitrile]: 2 µM and 0.022 µM.
On to `CN(C)C(=O)c1cccc(-c2cccc(N(CC3CC3)c3cc(=O)n(C)c4ccc(C#N)nc34)c2)c1` [Example 108, 3′-((6-cyano-1-methyl-2-oxo-1,2-dihydro-1,5-naphthyridin-4-yl)(cyclopropylmethyl)amino)-N,N-dimethyl-[1,1′-biphenyl]-3-carboxamide], for which the values for the IC50 on human DGKζ and on human DGKα were 3.7 µM and 44 µM, respectively.
The corresponding values for `CN(C)c1cccc(-c2cccc(N(CC3CC3)c3cc(=O)n(C)c4ccc(C#N)nc34)c2)c1` [Example 109, 8-((cyclopropylmethyl)(3′-(dimethylamino)-[1,1′-biphenyl]-3-yl)amino)-5-methyl-6-oxo-5,6-dihydro-1,5-naphthyridine-2-carbonitrile] are 3.7 µM and 6.3 µM.
For the molecule `COc1cc(-c2cccc(N(CC3CC3)c3cc(=O)n(C)c4ccc(C#N)nc34)c2)ccn1` [Example 110, 8-((cyclopropylmethyl)(3-(2-methoxypyridin-4-yl)phenyl)amino)-5-methyl-6-oxo-5,6-dihydro-1,5-naphthyridine-2-carbonitrile], the IC50 on human DGKζ is 7.3 µM; at human DGKα, 12 µM.

These data come from US20260049076A1, “Tertiary Amine Substituted Bicyclic Compounds Useful as T Cell Activators” (BRISTOL-MYERS SQUIBB COMPANY, priority 2022, published 2026).
